Assay results from patent publication US8642028B2, “Recombinant adenoviruses encoding the specific iodine transporter (NIS)” (Aventis Pharma S.A., priority 1999, dated 2014).

Assays:
NIS [1] = target: T1, NIS (Rattus norvegicus, UniProt Q63008); experiment: Inhibition by perchlorate of iodine transport by NIS in FRTL-5 cells; type: cell-based
T1 construct: expressed in transfected cells; host or cells: SiHa human epithelial tumor cells (ATCC HTB-35) infected with Ad-NIS at a multiplicity of infection of 10
T1 sequence (Q63008 1-618): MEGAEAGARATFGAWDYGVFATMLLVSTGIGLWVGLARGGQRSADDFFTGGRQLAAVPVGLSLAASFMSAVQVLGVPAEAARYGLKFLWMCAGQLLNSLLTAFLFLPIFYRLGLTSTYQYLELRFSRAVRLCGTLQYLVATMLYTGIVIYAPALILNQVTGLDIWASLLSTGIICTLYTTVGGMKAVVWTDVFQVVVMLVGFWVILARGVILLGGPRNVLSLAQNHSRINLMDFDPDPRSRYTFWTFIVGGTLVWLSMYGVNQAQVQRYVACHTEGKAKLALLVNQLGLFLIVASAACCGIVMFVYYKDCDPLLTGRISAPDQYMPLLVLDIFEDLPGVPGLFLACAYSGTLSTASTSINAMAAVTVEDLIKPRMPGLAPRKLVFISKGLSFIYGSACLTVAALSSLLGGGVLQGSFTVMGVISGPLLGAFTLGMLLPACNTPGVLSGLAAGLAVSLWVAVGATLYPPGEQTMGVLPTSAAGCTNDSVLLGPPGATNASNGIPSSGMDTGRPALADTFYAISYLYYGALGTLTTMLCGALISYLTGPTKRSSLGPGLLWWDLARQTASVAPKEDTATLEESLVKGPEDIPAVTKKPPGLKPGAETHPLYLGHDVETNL
Protocol: (§1) The cells are infected with the Ad-NIS vector at a multiplicity of infection of 10. The capacity of the cells to capture iodine is tested 28 to 29 h after infection according to the Weiss et al. method [Endocrinology (1984) 114: 1090-1098]. The infected cells are washed with HBSS buffer and placed in contact for the time indicated in FIG. 3 with 0.5 ml of HBSS buffer containing 0.1 μCi of iodine-125. At the end of the contact time, the cells are washed once with cold HBSS buffer and then incubated for 20 min with cold ethanol. The quantity of iodine-125 captured by the cells is determined by assaying the radioactivity of the ethanol, with a gamma counter.
(§2) The specific inhibition of iodine transport by NIS was tested in the presence of perchlorate. NaCIO4 was added to the HBSS buffer containing iodine-125 so as to obtain final concentrations of 30, 300 and 3000 μM. The contact time between the cells and the iodine-125 is 15 minutes. The results are expressed as number of counts for the same number of cells.

NIS [2] = target: T1, NIS; experiment: Inhibition by perchlorate of iodine transport by NIS in SiHa cells infected with Ad-NIS; type: cell-based
Protocol: as §1, §2

With `[O-][Cl+3]([O-])([O-])O` [NaCIO4] the inhibition at 30 µM (NIS [1]; FRTL-5, FRTL-5 cells, 30 μM NaCIO4, 15 min contact with iodine-125, read-out: inhibition of the fixing of iodine) was greater than 90%, the “inhibition of the fixing of iodine” value (NIS [1]; FRTL-5 cells, high NaCIO4 concentrations, 15 min contact with iodine-125) was 95% and the “inhibitor concentration required for the same level of inhibition, SiHa cells relative to FRTL-5 cells” value (NIS [2]; SiHa cells infected with Ad-NIS versus FRTL-5 cells) was 10 times. For the same compound, the inhibition at 30 µM (NIS [2]; SiHa cells infected with Ad-NIS, 30 μM NaCIO4, 15 min contact, read-out: inhibition of the fixing of iodine) was 40%, the inhibition at 300 µM (NIS [2]; SiHa cells infected with Ad-NIS, 300 μM NaCIO4, 15 min contact, read-out: inhibition of the fixing of iodine) was 92% and the inhibition at 3000 µM (NIS [2]; SiHa cells infected with Ad-NIS, 3 mM NaCIO4, 15 min contact, read-out: inhibition of the fixing of iodine) was 98%.
